Source: PubChem BioAssay AID248 (DTP/NCI, 2004)
Values joined by “and” are separate entries in the source; they are usually repeats but may differ in a detail not shown here. Equal values may be shown once. Inconclusive results and toxic doses are left out. Rule as the data show it: active = T/C of 150% or more; inactive = T/C below 125%.

Test system: L1210 leukemia ip in BDF1 mice, survival T/C
Test: NCI In Vivo Anticancer Drug Screen. Data for tumor model L1210 Leukemia (intraperitoneal) in B6D2F1 (BDF1) mice
Conditions: endpoint: mean survival time, higher = longer survival
Method in brief: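 Mice bearing the transplanted tumor received compound or vehicle. Survival of the treated group was divided by that of the vehicle-treated control group to give the ratio.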

[1] = dose: 100.0 mg/kg/injection, schedule: Q01DX009 (ip), vehicle: saline with Tween-80
[2] = dose: 200.0 mg/kg/injection, schedule: Q01DX009 (ip), vehicle: saline with Tween-80
[3] = dose: 400.0 mg/kg/injection, schedule: Q01DX009 (ip), vehicle: saline with Tween-80
[4] = dose: 100.0 mg/kg/injection, schedule: Q04DX003 (ip), vehicle: saline with Tween-80
[5] = dose: 200.0 mg/kg/injection, schedule: Q04DX003 (ip), vehicle: saline with Tween-80
[6] = dose: 400.0 mg/kg/injection, schedule: Q04DX003 (ip), vehicle: saline with Tween-80
[7] = dose: 50.0 mg/kg/injection, schedule: Q01DX009 (ip), vehicle: saline
[8] = dose: 100.0 mg/kg/injection, schedule: Q04DX002 (ip), vehicle: Klucel (hydroxypropylcellulose) (HPC)
[9] = dose: 200.0 mg/kg/injection, schedule: Q04DX002 (ip), vehicle: Klucel (hydroxypropylcellulose) (HPC)
[10] = dose: 400.0 mg/kg/injection, schedule: Q04DX002 (ip), vehicle: Klucel (hydroxypropylcellulose) (HPC)
[11] = dose: 100.0 mg/kg/injection, schedule: Q01DX001 (ip), vehicle: saline
[12] = dose: 200.0 mg/kg/injection, schedule: Q01DX001 (ip), vehicle: saline
[13] = dose: 400.0 mg/kg/injection, schedule: Q01DX001 (ip), vehicle: saline

Measured: T/C

NC(CSC(c1ccccc1)(c1ccccc1)c1ccc(Br)cc1)C(=O)O (stereo not given)
active: dose: 3.13 mg/kg/injection, schedule: Q01DX009 (ip), vehicle: saline 155 % of control | dose: 6.25 mg/kg/injection, schedule: Q01DX009 (ip), vehicle: saline 162 % of control | dose: 12.5 mg/kg/injection, schedule: Q01DX009 (ip), vehicle: saline 214 % of control
inactive: dose: 25.0 mg/kg/injection, schedule: Q01DX009 (ip), vehicle: saline 111 % of control | dose: 75.0 mg/kg/injection, schedule: Q01DX001 (ip), vehicle: other 105 % of control | dose: 150.0 mg/kg/injection, schedule: Q01DX001 (ip), vehicle: other 121 % of control

O=C(O)C1CCC2(CCCCC2)CC1
inactive: dose: 25.0 mg/kg/injection, schedule: Q01DX009 (ip), vehicle: water 101 % of control | dose: 50.0 mg/kg/injection, schedule: Q01DX009 (ip), vehicle: water 93 % of control | dose: 100.0 mg/kg/injection, schedule: Q01DX009 (ip), vehicle: water 98 % of control | dose: 200.0 mg/kg/injection, schedule: Q01DX009 (ip), vehicle: water 92 % of control

O=c1[nH]cn[nH]1
inactive: dose: 100.0 mg/kg/injection, schedule: Q04DX003 (ip), vehicle: saline sonified 105 % of control | dose: 200.0 mg/kg/injection, schedule: Q04DX003 (ip), vehicle: saline sonified 114 % of control | dose: 400.0 mg/kg/injection, schedule: Q04DX003 (ip), vehicle: saline sonified 101 % of control

CC(=O)OC1CC2C=CC1C2 (stereo not given)
inactive: [1] 93 % of control | [2] 91 % of control | [3] 86 % of control

CCNc1nc(N)nc(Cl)c1N
inactive: [4] 107 % of control | [5] 100 % of control | [6] 105 % of control

CC1(C)N=C(N)N=C(N)N1c1ccc(OCC(=O)Nc2ccc(S(=O)(=O)F)cc2)c(Cl)c1
inactive: dose: 50.0 mg/kg/injection, schedule: Q01DX009 (ip), vehicle: carboxymethylcellulose (CMC) 106 % of control and 117 % of control | [7] 109 % of control | dose: 100.0 mg/kg/injection, schedule: Q01DX009 (ip), vehicle: carboxymethylcellulose (CMC) 114 % of control | dose: 400.0 mg/kg/injection, schedule: Q01DX009 (ip), vehicle: carboxymethylcellulose (CMC) 94 % of control | dose: 400.0 mg/kg/injection, schedule: Q01DX009 (ip), vehicle: saline 109 % of control

O=C(CBr)c1ccc(Br)cc1
inactive: dose: 12.5 mg/kg/injection, schedule: Q01DX009 (ip), vehicle: Klucel (hydroxypropylcellulose) (HPC) 97 % of control | dose: 25.0 mg/kg/injection, schedule: Q01DX009 (ip), vehicle: Klucel (hydroxypropylcellulose) (HPC) 97 % of control | dose: 25.0 mg/kg/injection, schedule: Q04DX002 (ip), vehicle: Klucel (hydroxypropylcellulose) (HPC) 100 % of control | dose: 50.0 mg/kg/injection, schedule: Q01DX009 (ip), vehicle: Klucel (hydroxypropylcellulose) (HPC) 93 % of control | dose: 50.0 mg/kg/injection, schedule: Q04DX002 (ip), vehicle: Klucel (hydroxypropylcellulose) (HPC) 89 % of control | [8] 96 % of control and 107 % of control | [9] 111 % of control | [10] 92 % of control

O=CN/N=C/c1ccc2c(c1)CCC2
inactive: [1] 97 % of control | [2] 102 % of control | [3] 98 % of control

COc1c2ccc(-c3ccccc3)oc-2cc(=O)c1C
inactive: [8] 104 % of control | [9] 96 % of control | [10] 93 % of control

CCOC(=O)Nc1ccc([N+](=O)[O-])cc1[N+](=O)[O-]
inactive: dose: 100.0 mg/kg/injection, schedule: Q01DX001 (ip), vehicle: saline with Tween-80 101 % of control | [4] 100 % of control | dose: 200.0 mg/kg/injection, schedule: Q01DX001 (ip), vehicle: saline with Tween-80 98 % of control | [5] 93 % of control | dose: 400.0 mg/kg/injection, schedule: Q01DX001 (ip), vehicle: saline with Tween-80 95 % of control | [6] 98 % of control

CCOC(=O)NNC(N)=S
inactive: dose: 100.0 mg/kg/injection, schedule: Q01DX009 (ip), vehicle: Klucel (hydroxypropylcellulose) (HPC) 102 % of control | dose: 100.0 mg/kg/injection, schedule: Q04DX003 (ip), vehicle: Klucel (hydroxypropylcellulose) (HPC) 103 % of control | dose: 200.0 mg/kg/injection, schedule: Q01DX009 (ip), vehicle: Klucel (hydroxypropylcellulose) (HPC) 97 % of control | dose: 200.0 mg/kg/injection, schedule: Q04DX003 (ip), vehicle: Klucel (hydroxypropylcellulose) (HPC) 94 % of control | dose: 400.0 mg/kg/injection, schedule: Q01DX009 (ip), vehicle: Klucel (hydroxypropylcellulose) (HPC) 98 % of control | dose: 400.0 mg/kg/injection, schedule: Q04DX003 (ip), vehicle: Klucel (hydroxypropylcellulose) (HPC) 100 % of control

C#CCSC(=S)NNc1ccccc1
inactive: [1] 95 % of control | [4] 101 % of control | [2] 97 % of control | [5] 97 % of control | [6] 93 % of control

CCOC(=O)CCC(NC(=O)CCCCSc1ncnc2nc[nH]c12)C(=O)OCC (stereo not given)
inactive: dose: 25.0 mg/kg/injection, schedule: Q01DX009 (ip), vehicle: saline with Tween-80 97 % of control | dose: 25.0 mg/kg/injection, schedule: Q01DX009 (oral), vehicle: saline with Tween-80 90 % of control | dose: 50.0 mg/kg/injection, schedule: Q01DX009 (ip), vehicle: saline with Tween-80 101 % of control | dose: 50.0 mg/kg/injection, schedule: Q01DX009 (oral), vehicle: saline with Tween-80 86 % of control | [1] 106 % of control | dose: 100.0 mg/kg/injection, schedule: Q01DX009 (oral), vehicle: saline with Tween-80 100 % of control | [2] 111 % of control | dose: 200.0 mg/kg/injection, schedule: Q01DX009 (oral), vehicle: saline with Tween-80 88 % of control | [3] 107 % of control | dose: 400.0 mg/kg/injection, schedule: Q01DX009 (oral), vehicle: saline with Tween-80 95 % of control

CCCCN(C)N=Nc1ccc(OCC(=O)NN)cc1
inactive: dose: 10.0 mg/kg/injection, schedule: Q01DX Z (ip), vehicle: carboxymethylcellulose (CMC) 93 % of control | dose: 15.0 mg/kg/injection, schedule: Q01DX Z (ip), vehicle: carboxymethylcellulose (CMC) 96 % of control | dose: 20.0 mg/kg/injection, schedule: Q01DX Z (ip), vehicle: carboxymethylcellulose (CMC) 91 % of control | dose: 30.0 mg/kg/injection, schedule: Q01DX Z (ip), vehicle: carboxymethylcellulose (CMC) 114 % of control | dose: 60.0 mg/kg/injection, schedule: Q01DX Z (ip), vehicle: carboxymethylcellulose (CMC) 95 % of control

CCCCCCCCNC(=O)C1OC(n2cnc3c(N)ncnc32)C2OC(C)(C)OC12 (stereo not given)
inactive: dose: 100.0 mg/kg/injection, schedule: Q01DX005 (ip), vehicle: saline with Tween-80 94 % of control | dose: 200.0 mg/kg/injection, schedule: Q01DX005 (ip), vehicle: saline with Tween-80 102 % of control

CNC1(C(N)=O)CCCCC1
inactive: [7] 91 % of control | [11] 102 % of control | dose: 100.0 mg/kg/injection, schedule: Q01DX009 (ip), vehicle: saline 96 % of control | dose: 100.0 mg/kg/injection, schedule: Q04DX003 (ip), vehicle: saline 100 % of control | [12] 107 % of control | dose: 200.0 mg/kg/injection, schedule: Q01DX009 (ip), vehicle: saline 106 % of control | dose: 200.0 mg/kg/injection, schedule: Q04DX003 (ip), vehicle: saline 100 % of control | [13] 104 % of control | dose: 400.0 mg/kg/injection, schedule: Q04DX003 (ip), vehicle: saline 96 % of control

O=C1c2cccc3cccc(c23)C(=O)N1CCCCCCCCCCN1C(=O)c2cccc3cccc(c23)C1=O
inactive: dose: 50.0 mg/kg/injection, schedule: Q01DX009 (ip), vehicle: gum acacia 93 % of control | dose: 100.0 mg/kg/injection, schedule: Q01DX009 (ip), vehicle: gum acacia 94 % of control and 89 % of control | dose: 100.0 mg/kg/injection, schedule: Q04DX003 (ip), vehicle: gum acacia 93 % of control | dose: 200.0 mg/kg/injection, schedule: Q04DX003 (ip), vehicle: gum acacia 86 % of control | dose: 400.0 mg/kg/injection, schedule: Q01DX009 (ip), vehicle: gum acacia 89 % of control | dose: 400.0 mg/kg/injection, schedule: Q04DX003 (ip), vehicle: gum acacia 90 % of control

CNc1ccc(Nc2cc(S(=O)(=O)O)c(N)c3c2C(=O)c2ccccc2C3=O)cc1
inactive: [11] 110 % of control | [12] 98 % of control | [13] 93 % of control
